Measured values reported in patent US8551984B2, “Aminopyrimidines as SYK inhibitors” (Merck Sharp & Dohme Corp., priority 2009, dated 2013).
pIC50: −log10 of the molar value.

Target: recombinant human SYK (GST-hSYK fusion protein) (Homo sapiens, UniProt P43405)
Assay: biochemical
[1] = rhSYK Activity (IC50), recombinant human GST-SYK 5 pM, ATP 25 μM, biotinylated substrate peptide 250 nM, HTRF, 10-dose titration

Excerpt: Homogeneous Time-Resolved Fluorescence (HTRF) Assay for the Recombinant Human SYK Enzyme:

Row | pIC50 [1] | pIC50 (rhSYK Activity, Table 108A) | SMILES
1 | > 7.00 |  | Cc1cc(Nc2nccc(OC3CCC3)n2)cc(-c2cnc(C3(O)CCC3)s2)c1 [Example 94A-30]
2 | > 7.00 |  | Cc1cc(Nc2nccc(OC3CCCC3)n2)cc(-c2cnc(C3(O)CCC3)s2)c1 [Example 94A-31]
3 | 6.00 to 7.00 |  | Cc1cc(Nc2nccc(OC3CCCCC3)n2)cc(-c2cnc(C3(O)CCC3)s2)c1 [Example 94A-32]
4 | > 7.00 |  | Cc1cc(Nc2nccc(OC3CCNCC3)n2)cc(-c2cnc(C3(O)CCC3)s2)c1 [Example 94A-33]
5 | > 7.00 |  | Cc1cc(Nc2nccc(OCc3ccccc3)n2)cc(-c2cnc(C(C)(O)C(F)(F)F)s2)c1 (stereo not shown) [Example 94B-1, 2-[5-(3-{[4-(benzyloxy)pyrimidin-2-yl]-amino}-5-methylphenyl)-1,3-thiazol-2-yl]-1,1,1-trifluoropropan-2-ol]
6 | > 7.00 |  | Cc1cc(Nc2nccc(OC3CCC(C)(O)CC3)n2)cc(-c2cnc(C(C)(O)C(F)(F)F)s2)c1 (stereo not shown) [Example 94B-2]
7 | 6.00 to 7.00 |  | Cc1cc(Nc2nccc(OC3CCC(OCc4ccccc4)CC3)n2)cc(-c2cnc(C(C)(O)C(F)(F)F)s2)c1 (stereo not shown) [Example 94B-3, 2-(5-{3-[(4-{[4-(benzyloxy)cyclohexyl]oxy}pyrimidin-2-yl)amino]-5-methylphenyl}-1,3-thiazol-2-yl)-1,1,1-trifluoropropan-2-ol]
8 | > 7.00 |  | Cc1cc(Nc2nccc(OC3CCNCC3F)n2)cc(-c2cnc(C(C)(O)C(F)(F)F)s2)c1 (stereo not shown) [Example 94B-4]
9 | > 7.00 |  | Cc1cc(Nc2nccc(OC3CCNCC3)n2)cc(-c2cnc(C(C)(O)C(F)(F)F)s2)c1 (stereo not shown) [Example 94B-6]
10 | > 7.00 |  | Cc1cc(Nc2nccc(O[C@H]3CCNC3)n2)cc(-c2cnc(C(C)(O)C(F)(F)F)s2)c1 (stereo partly shown) [Example 94B-9]
11 | > 7.00 |  | CC(O)c1ncc(-c2cccc(Nc3nccc(OC4CCNCC4)n3)c2)s1 (stereo not shown) [Example 94B-10]
12 | > 7.00 |  | Cc1cc(Nc2nccc(N3CCCC(=O)NC3)n2)cc(-c2cnc(C3(O)CCC3)s2)c1 [Example 94C-1]
13 | 6.00 to 7.00 |  | Cc1cc(Nc2nccc(OC(C)(C)C(=O)O)n2)cc(-c2cnc(C3(O)CCC3)s2)c1 [Example 95, 2-{[2-({3-[2-(1-hydroxycyclobutyl)-1,3-thiazol-5-yl]-5-methylphenyl}amino)pyrimidin-4-yl]oxy}-2-methylpropanoic acid]
14 | > 7.00 |  | Cc1cc(Nc2nccc(OC3CCC(C(=O)O)CC3)n2)cc(-c2cnc(C3(O)CCC3)s2)c1 (stereo not shown) [Example 97, 4-{[2-({3-[2-(1-hydroxycyclobutyl)-1,3-thiazol-5-yl]-5-methylphenyl}amino)pyrimidin-4-yl]oxy}cyclohexanecarboxylic acid]
15 | > 7.00 |  | Cc1cc(Nc2nccc(Cl)n2)cc(-c2cnc(C(C)(O)C(F)(F)F)s2)c1 (stereo not shown) [Example 98, 2-(5-{3-[(4-chloropyrimidin-2-yl)amino]-5-methylphenyl}-1,3-thiazol-2-yl)-1,1,1-trifluoropropan-2-ol]
16 | > 7.00 |  | COc1ccnc(Nc2cc(C)cc(-c3cnc(C4(O)CCC4)s3)c2)n1 [Example 100A-1]
17 | > 7.00 |  | Cc1cc(Nc2nccc(C)n2)cc(-c2cnc(C3(O)CCC3)s2)c1 [Example 100A-2]
18 | 6.00 to 7.00 |  | Cc1cc(Nc2ncccn2)cc(-c2cnc(C3(O)CCC3)s2)c1 [Example 100A-3]
19 | 6.00 to 7.00 |  | Cc1cc(Nc2ncc(F)cn2)cc(-c2cnc(C3(O)CCC3)s2)c1 [Example 100A-4]
20 | 6.00 to 7.00 |  | Cc1cc(Nc2ncc(Cl)cn2)cc(-c2cnc(C3(O)CCC3)s2)c1 [Example 100A-5]
21 | 6.00 to 7.00 |  | CCc1cnc(Nc2cc(C)cc(-c3cnc(C4(O)CCC4)s3)c2)nc1 [Example 100A-6]

Row | pIC50 [1] | pIC50 (rhSYK Activity, Table 108A) | SMILES
22 | > 7.00 |  | Cc1cc(Nc2nccc(C#N)n2)cc(-c2cnc(C3(O)CCC3)s2)c1 [Example 100A-7]
23 | 6.00 to 7.00 |  | Cc1cc(Nc2nc(C)cc(C)n2)cc(-c2cnc(C3(O)CCC(C(=O)O)C(C)(C)C3)s2)c1 (stereo not shown) [Example 100A-9]
24 | 6.00 to 7.00 |  | COc1nc(Nc2cc(C)cc(-c3cnc(C4(O)CCC(O)CC4)s3)c2)ncc1C(F)(F)F (stereo not shown) [Example 100A-11]
25 | > 7.00 |  | COc1nc(Nc2cc(C)cc(-c3cnc(C4(O)CCC(C(=O)O)C(C)(C)C4)s3)c2)ncc1C (stereo not shown) [Example 100A-13]
26 | > 7.00 |  | Cc1cc(Nc2ncc(C)c(N(C)C)n2)cc(-c2cnc(C3(O)CCC(C(=O)O)C(C)(C)C3)s2)c1 (stereo not shown) [Example 100A-16]
27 | > 7.00 |  | Cc1cc(Nc2nccc(C(C)(C)O)n2)cc(-c2cnc(C3(O)CCC(C(=O)O)C(C)(C)C3)s2)c1 (stereo not shown) [Example 100A-17]
28 | > 7.00 |  | Cc1cc(Nc2nccc(C(F)C3CC3)n2)cc(-c2cnc(C3(O)CCC(C(=O)O)C(C)(C)C3)s2)c1 (stereo not shown) [Example 100A-20]
29 | > 7.00 |  | Cc1cc(Nc2nccc(C=CC(C)(C)O)n2)cc(-c2cnc(C3(O)CCC(C(=O)O)C(C)(C)C3)s2)c1 (stereo not shown) [Example 100A-23]
30 | > 7.00 |  | Cc1cc(Nc2nccc(C(C)(O)C3CC3)n2)cc(-c2cnc(C3(O)CCC(C(=O)O)C(C)(C)C3)s2)c1 (stereo not shown) [Example 100A-24]
31 | 5.00 to 6.00 |  | COC(=O)C1CCC(O)(c2ncc(-c3cc(C)cc(Nc4ncc(C(F)(F)F)c(OC)n4)c3)s2)CC1(C)C (stereo not shown) [Example 100A-27]
32 | 6.00 to 7.00 |  | COC(=O)[C@H]1CC[C@](O)(c2ncc(-c3cc(C)cc(Nc4ncc5c(n4)CCC5)c3)s2)CC1(C)C [Example 100A-29]
33 | > 7.00 |  | COc1ccnc(Nc2cc(C)cc(-c3cnc(C(C)(O)C(F)(F)F)s3)c2)n1 (stereo not shown) [Example 100B-1]
34 | > 7.00 |  | Cc1cc(Nc2ncc(F)cn2)cc(-c2cnc(C(C)(O)C(F)(F)F)s2)c1 (stereo not shown) [Example 100B-2]
35 | 6.00 to 7.00 |  | COc1cnc(Nc2cc(C)cc(-c3cnc(C(C)(O)C(F)(F)F)s3)c2)nc1 (stereo not shown) [Example 100B-3]
36 | 5.00 to 6.00 |  | Cc1cc(Nc2ncc(C3CC3)cn2)cc(-c2cnc(C(C)(O)C(F)(F)F)s2)c1 (stereo not shown) [Example 100B-4]
37 | > 7.00 |  | Cc1cnc(Nc2cc(C)cc(-c3cnc(C(C)(O)C(F)(F)F)s3)c2)nc1 (stereo not shown) [Example 100]
38 | 6.00 to 7.00 |  | Cc1cc(Nc2ncccn2)cc(-c2cnc(C(C)(O)C(F)(F)F)s2)c1 (stereo not shown) [Example 101, 1,1,1-trifluoro-2-{5-[3-methyl-5-(pyrimidin-2-ylamino)phenyl]-1,3-thiazol-2-yl}propan-2-ol]
39 | > 7.00 |  | CCOC(=O)C1CCC(O)(c2ncc(-c3cc(C)cc(Nc4nccc(C(C)(C)C)n4)c3)s2)CC1C (stereo not shown) [Example 101-1]
40 | > 7.00 |  | COC(=O)[C@H]1CC[C@](O)(c2ncc(-c3cc(C)cc(Nc4nccc(C(C)C)n4)c3)s2)CC1(C)C [Example 101-2]
41 | > 7.00 |  | COC(=O)[C@H]1CC[C@](O)(c2ncc(-c3cc(C)cc(Nc4nccc(C(C)(C)C)n4)c3)s2)CC1(C)C [Example 101-3]
42 | > 7.00 |  | COC(=O)[C@H]1CC[C@](O)(c2ncc(-c3cc(C)cc(Nc4nccc(OC(C)C)n4)c3)s2)CC1(C)C [Example 101-4]

Row | pIC50 [1] | pIC50 (rhSYK Activity, Table 108A) | SMILES
43 | > 7.00 |  | C=Cc1ccnc(Nc2cc(C)cc(-c3cnc([C@@]4(O)CC[C@H](C(=O)OC)C(C)(C)C4)s3)c2)n1 [Example 101-5]
44 | > 7.00 |  | COC(=O)[C@H]1CC[C@](O)(c2ncc(-c3cc(C)cc(Nc4nccc(C5CCC5)n4)c3)s2)CC1(C)C [Example 101-6]
45 | > 7.00 |  | COC(=O)[C@H]1CC[C@](O)(c2ncc(-c3cc(C)cc(Nc4nccc(C(N)=O)n4)c3)s2)CC1(C)C [Example 101-7]
46 | > 7.00 |  | COc1nc(Nc2cc(C)cc(-c3cnc(C4(O)CCC4)s3)c2)ncc1Cl [Example 102, 1-(5-{3-[(5-chloro-4-methoxypyrimidin-2-yl)amino]-5-methylphenyl}-1,3-thiazol-2-yl)-cyclobutanol]
47 | > 7.00 |  | Cc1cc(Nc2ncc(Cl)c(C)n2)cc(-c2cnc(C3(O)CCC3)s2)c1 [Example 103, 1-(5-{3-[(5-chloro-4-methylpyrimidin-2-yl)amino]-5-methylphenyl}-1,3-thiazol-2-yl)cyclobutanol]
48 | > 7.00 |  | C=Cc1ccnc(Nc2cc(C)cc(-c3cnc(C4(O)CCC4)s3)c2)n1 [Example 104, 1-(5-{3-[(4-ethenylpyrimidin-2-yl)amino]-5-methylphenyl}-1,3-thiazol-2-yl)cyclobutanol]
49 | 6.00 to 7.00 |  | COC/C=C/c1ccnc(Nc2cc(C)cc(-c3cnc(C4(O)CCC(C(=O)OC(C)(C)C)CC4)s3)c2)n1 (stereo not shown) [Example 104-1]
50 | > 7.00 |  | COC/C=C/c1ccnc(Nc2cc(C)cc(-c3cnc(C4(O)CCC(C(=O)O)CC4)s3)c2)n1 (stereo not shown) [Example 104-2]
51 | > 7.00 |  | Cc1cc(Nc2nccc(C(O)CO)n2)cc(-c2cnc(C3(O)CCC3)s2)c1 (stereo not shown) [Example 105, 1-[2-({3-[2-(1-hydroxycyclobutyl)-1,3-thiazol-5-yl]-5-methylphenyl}amino)pyrimidin-4-yl]ethane-1,2-diol]
52 | > 7.00 |  | CC(=O)c1ccnc(Nc2cc(C)cc(-c3cnc(C(C)(O)C(F)(F)F)s3)c2)n1 (stereo not shown) [Example 106, 1-[2-({3-methyl-5-[2-(1,1,1-trifluoro-2-hydroxypropan-2-yl)-1,3-thiazol-5-yl]phenyl}amino)pyrimidin-4-yl]ethanone]
53 | > 7.00 |  | Cc1cc(Nc2nccc(C3CCC3)n2)cc(-c2cnc(C3(O)CCC3)s2)c1 [Example 107, 1-(5-{3-[(4-cyclobutylpyrimidin-2-yl)amino]-5-methylphenyl}-1,3-thiazol-2-yl)cyclobutanol]
54 | > 7.00 |  | Cc1cc(Nc2nccc(C3CCCC3)n2)cc(-c2cnc(C3(O)CCC3)s2)c1 [Example 107-1]
55 | > 7.00 |  | Cc1cc(Nc2nccc(C3CCCCC3)n2)cc(-c2cnc(C3(O)CCC3)s2)c1 [Example 107-2]
56 |  | > 7.00 | Cc1cc(Nc2nccc(OCc3nccn3C)n2)cc(-c2cnc(C3(O)CCC3)s2)c1 [Example 108A-1]
57 |  | > 7.00 | Cc1cc(Nc2nccc(OCc3c[nH]cn3)n2)cc(-c2cnc(C3(O)CCC3)s2)c1 [Example 108A-2]
58 |  | > 7.00 | Cc1cc(Nc2nccc(OCCN3CCOCC3=O)n2)cc(-c2cnc(C3(O)CCC3)s2)c1 [Example 108A-3]
59 |  | > 7.00 | Cc1cc(Nc2nccc(OCC3CCCOC3)n2)cc(-c2cnc(C3(O)CCC3)s2)c1 (stereo not shown) [Example 108A-4]
60 |  | > 7.00 | Cc1cc(Nc2nccc(OC(CN)c3ccncn3)n2)cc(-c2cnc(C3(O)CCC3)s2)c1 (stereo not shown) [Example 108A-6]
61 |  | 6.00 to 7.00 | Cc1cc(Nc2nccc(OCc3cccc4ccnn34)n2)cc(-c2cnc(C3(O)CCC3)s2)c1 [Example 108A-7]
